Data taken from patent EP1854806A1, “Thioglycosides as pharmaceutically active agents” (MPG Max-Planck-Gesellschaft zur Förderung der …, priority 2006, dated 2007).
Like-named read-outs stand apart in the source and are kept apart here.

Legend:
Format in all cases: cell-based
[1] = molecular target: T1, human SGLT1 (Homo sapiens, UniProt P13866); experiment: Inhibition of sodium-dependent D-glucose transport, [14C]AMG-uptake; conditions: for inhibitory effect, hSGLT1 compared with hSGLT2: [14C]AMG-uptake, 10µM, n=16, p<0.001, result in words; for Ki: apparent inhibitory constant, Dixon plot
T1 construct: expressed in transfected cells; host or cells: CHO (Chinese hamster ovary) cells, stably transfected
T1 sequence (P13866 1-664): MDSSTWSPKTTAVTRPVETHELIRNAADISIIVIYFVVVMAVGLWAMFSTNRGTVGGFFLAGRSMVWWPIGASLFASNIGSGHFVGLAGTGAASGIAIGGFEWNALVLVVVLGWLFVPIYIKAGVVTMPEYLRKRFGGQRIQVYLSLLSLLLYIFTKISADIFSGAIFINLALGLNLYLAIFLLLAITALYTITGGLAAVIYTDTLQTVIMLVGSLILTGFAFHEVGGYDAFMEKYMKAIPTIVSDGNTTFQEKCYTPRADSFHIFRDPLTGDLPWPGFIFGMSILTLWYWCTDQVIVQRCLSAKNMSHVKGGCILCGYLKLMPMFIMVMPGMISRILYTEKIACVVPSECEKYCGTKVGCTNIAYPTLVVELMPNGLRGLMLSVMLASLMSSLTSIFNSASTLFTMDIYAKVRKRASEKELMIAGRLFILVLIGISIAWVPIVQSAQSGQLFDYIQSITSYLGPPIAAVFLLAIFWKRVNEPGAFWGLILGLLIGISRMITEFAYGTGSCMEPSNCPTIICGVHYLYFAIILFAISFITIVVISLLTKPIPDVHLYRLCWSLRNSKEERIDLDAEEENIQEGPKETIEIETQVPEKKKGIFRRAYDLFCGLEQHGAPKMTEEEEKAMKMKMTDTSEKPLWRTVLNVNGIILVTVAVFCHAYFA
Description: (§1) Stable transfected Chinese hamster ovary (CHO) cells that express human SGLT1 or human SGLT2 were seeded at a concentration of […] and maintained in culture for 2 days to allow the cells to form a confluent monolayer culture. For transport studies cells were seeded in 96-well microtiter scintiplates (PerkinElmer, Weisbaden, German). For fluorescence resonance energy transfer (FRET) analysis cells were seeded in flat-bottom, poly-D-lysine black-wall, clear bottom, 96-well plates (Becton Dickinson; Heidelberg, Germany).
(§2) Sodium-dependent D-glucose transport was determined by means of α-methyl [^14C]D-glucopyranoside ([^14C]AMG, spec. Radioactivity 300 mCi/mmol) purchased from NEN (Bad Homburg, Germany). For the purpose of this study, Krebs-Ringer-Henseleit (KRH) solution containing 120 mM NaCl, 4.7 mM KCI, 1.2 mM MgCl2, 2.2 mM CaCl2, 10 mM Hepes (pH 7.4 with Tris) was used to assess sodium-dependent D-glucose transport. For sodium free conditions, KRH solution containing 120 mM N-methyl-glucamine (NMG) instead of NaCl (Na^+) was used to assess sodium-independent D-glucose transport. All chemicals were purchased from Sigma (Deisenhof, Germany).
(§3) Briefly, cells were rinsed three times with 200 µl KRH-Na^+ or KRH-NMG. Then, 100 µl per well of transport buffer containing KRH-NA^+ or KRH-NMG plus [^14C]AMG (0.1 µCi/µl) were added and incubated for 1 hour. […] Then, the cells were solubilized by adding 100 µl of ATPlite substrate solution (PerkinElmer, Boston, USA) and luminescence ATP detection was assessed using a MicroBeta Trilux (PerkinElmer). A standard curve was used to determine the amount of ATP as mg of protein. After 24 hours the microtiter plate was taken for scintillation counting of radioactive [^14C]AMG-uptake using a MicroBeta Trilux (PerkinElmer). Subsequently, the mean counts per minute (cpm) were calculated and converted to […] (pmol). The obtained radioactive counts were expressed as pmol/mg/hour. Sodium-dependent [14C]AMG-uptake was calculated by subtracting uptake under sodium-free conditions from the uptake obtained in the presence of sodium.
(§4) The inhibitory effect on SGLT transport was also analyzed by IC50 values. Dixon plot analysis was used for both estimation of the inhibition constant (Ki) and for identification of the mechanism of enzyme inhibition. Ki was determined by the point of intersection of two different substrate concentrations. Plots of the reciprocal of rate of metabolite formation (1/Rate) versus inhibitor concentration at each substrate concentration were prepared.

[2] = molecular target: T2, human SGLT2 (Homo sapiens, UniProt P31639); experiment: as above; conditions: hSGLT2; for Ki: apparent inhibitory constant, Dixon plot
T2 construct: expressed in transfected cells; host or cells: CHO (Chinese hamster ovary) cells, stably transfected
T2 sequence (P31639 1-672): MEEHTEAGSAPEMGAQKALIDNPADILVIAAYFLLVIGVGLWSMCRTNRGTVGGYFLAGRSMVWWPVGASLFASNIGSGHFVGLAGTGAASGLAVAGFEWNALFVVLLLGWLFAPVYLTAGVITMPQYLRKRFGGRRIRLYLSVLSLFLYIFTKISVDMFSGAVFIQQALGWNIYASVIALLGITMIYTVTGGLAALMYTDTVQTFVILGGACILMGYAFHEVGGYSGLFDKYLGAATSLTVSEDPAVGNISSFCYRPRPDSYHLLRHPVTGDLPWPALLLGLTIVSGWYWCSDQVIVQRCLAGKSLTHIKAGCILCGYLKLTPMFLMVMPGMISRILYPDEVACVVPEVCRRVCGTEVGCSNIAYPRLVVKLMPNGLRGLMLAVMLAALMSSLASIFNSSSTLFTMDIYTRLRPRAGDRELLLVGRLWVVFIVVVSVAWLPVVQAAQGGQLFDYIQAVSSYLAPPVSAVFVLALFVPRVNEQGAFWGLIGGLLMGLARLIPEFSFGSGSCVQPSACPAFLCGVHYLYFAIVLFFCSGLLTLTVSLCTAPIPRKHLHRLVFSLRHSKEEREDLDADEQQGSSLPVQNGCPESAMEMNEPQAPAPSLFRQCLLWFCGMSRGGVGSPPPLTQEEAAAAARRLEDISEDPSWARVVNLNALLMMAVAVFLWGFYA
Description: as §1, §2, §3, §4

[3] = molecular target: T1, human SGLT1; experiment: SGLT activity (membrane translocation) by fluorescence resonance energy transfer (FRET); conditions: for transport through hSGLT1 (FRET): result in words; for fluorescence signal ratios: hSGLT1 in CHO cells, 10 µm thioglucoside, normalized to non-transfected CHO cells, ratio higher than 1 = transported, n=16
Description: as §1
(§5) SGLT activity, as indicated by membrane translocation, was assessed using fluorescence resonance energy transfer (FRET). Cells were incubated for 48 hours ar 37°C in a 5% CO2 atmosphere in growth medium. Cells were washed with 0.2 ml Dulbecco's phosphate-buffered saline (Invitrogen, Karlsruhe, Germany) and then incubated with 0.1 ml of a solution containing 5 µm CC2-DMPE and 0.02% pluronic acid in PBS. After incubation in the dark for 30 min at 25°C, cells were washed twice with 0.2 ml PBS. Afterwards, cells were incubated in the dark at 25°C for 30 minutes with 0.1 ml of a solution containing […] DiSBAC2(3). A t the end of the incubation period 1 mM of each thioglucoside was added and excited by 390 nm. Fluorescence emission was recorded at 460 and 580 nm. After a 20 second baseline reading, 0.1 ml of PBS containing 10 µM of each compound was added, and the fluorescence was calculated as the ratio F/F0 = [(A460/A580)/(I460/I580)] where A and I represent the reading after or before addition of each thioglucoside, respectively. For I, the readings form 2-5 seconds were averaged; and for A, readings from 3 seconds after the signal that had reached a plateau level (usually within 2-5 seconds) were also averaged. FRET values were expressed as relative fluorescence units (RFU).
(§6) The activity of the sodium-dependent D-glucose cotransport system was studied by changes in membrane potential induced by each of the eight thioglucosides (see Table 1) (10 µm). FRET values were normalized using the fluorescence signal obtained from non-transfected CHO cells.

[4] = molecular target: T2, human SGLT2; experiment: as above; conditions: for transport through hSGLT2 (FRET): result in words; for fluorescence ratios: hSGLT2 in CHO cells, 10 µm thioglucoside, normalized to non-transfected CHO cells, ratio higher than 1 = transported, n=16
Description: as §1, §5, §6

Ki ([1]; hSGLT1, read-out: Ki) | IC50 ([1]; hSGLT1, read-out: IC50) | Structure (SMILES) | inhibitory effect, hSGLT1 compared with hSGLT2 [1] | IC50 [2] | Ki [2] | transport through hSGLT1 (FRET) [3] | transport through hSGLT2 (FRET) [4] | IC50 [1] | Ki ([1]; Ki, hSGLT1) | fluorescence signal ratios [3] | fluorescence ratios [4] | inhibition at 10 µM ([1]; read-out: [14C]AMG-uptake, % inhibition) | inhibition at 10 µM ([2]; 10µM, n=16)
0.1 µM | 35 µM | C/C(=C\CC/C(C)=C/CS[C@@H]1O[C@H](CO)[C@@H](O)[C@H](O)[C@H]1O)CO [Thioglucoside 1, 8-Hydroxygeranol-1'-thio-β-D-glucopyranoside] | stronger for hSGLT1 | 12 µM | 0.03 µM | not transported | not transported | – | – | – | – | – | –
– | – | OCc1ccccc1S[C@@H]1O[C@H](CO)[C@@H](O)[C@H](O)[C@H]1O [Thioglucoside 2, 2-Hydroxymethyl-phenyl-1'-thio-β-D-glucopyranoside] | stronger for hSGLT1 | 9 µM | 0.01 µM | not transported | not transported | 41 µM | 383 µM | – | – | – | –
– | – | OC[C@H]1O[C@@H](Sc2ccccc2)[C@H](O)[C@@H](O)[C@@H]1O [Thioglucoside 3, Phenyl-1'-thio-β-D-glucopyranoside] | stronger for hSGLT1 | 16 µM | 135 µM | significantly transported | significantly transported | 4 µM | 0.08 µM | 1.15 | 1.21 | – | –
– | – | Cc1ccccc1S[C@@H]1O[C@H](CO)[C@@H](O)[C@H](O)[C@H]1O [Thioglucoside 4, o-Tolyl-1'-thio-β-D-glucopyranoside] | stronger for hSGLT1 | 18 µM | 132 µM | significantly transported | significantly transported | 30 µM | 0.28 µM | – | 1.63 | > 70% | –
– | – | OCc1cccc(S[C@@H]2O[C@H](CO)[C@@H](O)[C@H](O)[C@H]2O)c1 [Thioglucoside 5, 3-Hydroxymethyl-phenyl-1'-thio-β-D-glucopyranoside] | – | 12 µM | 0.02 µM | – | – | 47 µM | 0.12 µM | 1.01 | – | – | –
– | – | OCc1ccccc1S[C@@H]1O[C@H](CO)[C@H](O)[C@H](O)[C@H]1O [Thioglucoside 6, 2-Hydroxymethyl-phenyl-1'-thio-β-D-galactopyranoside] | – | 15 µM | 0.01 µM | – | – | 120 µM | 140 µM | – | 1.32 | – | –
– | – | Cc1ccc(S[C@@H]2O[C@H](CO)[C@@H](O)[C@H](O)[C@H]2O)cc1 [Thioglucoside 7, p-Tolyl-1'-thio-β-D-glucopyranoside] | – | 32 µM | 175 µM | significantly transported | significantly transported | 52 µM | 23 µM | 2.64 | 4.22 | – | > 70%
– | – | Cc1cccc(S[C@@H]2O[C@H](CO)[C@@H](O)[C@H](O)[C@H]2O)c1 [Thioglucoside 8, m-Tolyl-1'-thio-β-D-glucopyranoside] | – | 11 µM | 0.02 µM | not transported | not transported | 40 µM | 0.17 µM | – | – | – | –
– | – | O=C(CCc1ccc(O)cc1)c1c(O)cc(O)cc1O[C@@H]1O[C@H](CO)[C@@H](O)[C@H](O)[C@H]1O [phlorizin, reference compound] | – | – | – | – | not transported | – | – | – | – | – | –
